According to article PMC2384007 (PLoS ONE, 2008):

Key:
[1] = biological target: T1, Biotin Protein Ligase (MtBPL) (Mycobacterium tuberculosis, UniProt I6YFP0); assay: ITC (VP-ITC, […]°C); format: binding
T1 construct: gene birA; 266 amino acids, hexahistidine tag at N-terminus

[2] = biological target: Mycobacterium tuberculosis Biotin Protein Ligase (Mycobacterium tuberculosis) (UniProt I6YFP0)
Chain of Mycobacterium tuberculosis Biotin Protein Ligase (Mycobacterium tuberculosis) (I6YFP0 whole entry): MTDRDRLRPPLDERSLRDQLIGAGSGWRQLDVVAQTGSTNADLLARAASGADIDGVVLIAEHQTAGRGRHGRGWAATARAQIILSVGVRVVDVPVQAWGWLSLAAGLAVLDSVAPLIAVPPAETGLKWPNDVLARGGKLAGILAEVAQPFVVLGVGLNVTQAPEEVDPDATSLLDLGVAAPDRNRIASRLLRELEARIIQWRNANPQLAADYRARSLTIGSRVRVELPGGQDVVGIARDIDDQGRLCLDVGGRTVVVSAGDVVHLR

T1 sequence (I6YFP0 whole entry, looked up): as the sequence (I6YFP0 whole entry) above

Compound | Kd [1] [µM] | Km for BCCP in the MtBPL catalysed incorporation of [14C]-biotin into BCCP (steady state kinetics, Michaelis-Menten fit) [2] [µM]
Nc1ncnc2c1ncn2[C@@H]1O[C@H](COP(=O)(O)OC(=O)CCCC[C@@H]2SC[C@@H]3NC(=O)N[C@@H]32)[C@@H](O)[C@H]1O [bio-5′-AMP] | 1.36 | 
biotin carboxyl carrier protein (BCCP) domain of M. tuberculosis acetyl CoA carboxylase (domain or fragment) |  | 5.2
